The target in the assay is T1, Androgen receptor (Homo sapiens, UniProt P10275).
T1 sequence (P10275 whole entry): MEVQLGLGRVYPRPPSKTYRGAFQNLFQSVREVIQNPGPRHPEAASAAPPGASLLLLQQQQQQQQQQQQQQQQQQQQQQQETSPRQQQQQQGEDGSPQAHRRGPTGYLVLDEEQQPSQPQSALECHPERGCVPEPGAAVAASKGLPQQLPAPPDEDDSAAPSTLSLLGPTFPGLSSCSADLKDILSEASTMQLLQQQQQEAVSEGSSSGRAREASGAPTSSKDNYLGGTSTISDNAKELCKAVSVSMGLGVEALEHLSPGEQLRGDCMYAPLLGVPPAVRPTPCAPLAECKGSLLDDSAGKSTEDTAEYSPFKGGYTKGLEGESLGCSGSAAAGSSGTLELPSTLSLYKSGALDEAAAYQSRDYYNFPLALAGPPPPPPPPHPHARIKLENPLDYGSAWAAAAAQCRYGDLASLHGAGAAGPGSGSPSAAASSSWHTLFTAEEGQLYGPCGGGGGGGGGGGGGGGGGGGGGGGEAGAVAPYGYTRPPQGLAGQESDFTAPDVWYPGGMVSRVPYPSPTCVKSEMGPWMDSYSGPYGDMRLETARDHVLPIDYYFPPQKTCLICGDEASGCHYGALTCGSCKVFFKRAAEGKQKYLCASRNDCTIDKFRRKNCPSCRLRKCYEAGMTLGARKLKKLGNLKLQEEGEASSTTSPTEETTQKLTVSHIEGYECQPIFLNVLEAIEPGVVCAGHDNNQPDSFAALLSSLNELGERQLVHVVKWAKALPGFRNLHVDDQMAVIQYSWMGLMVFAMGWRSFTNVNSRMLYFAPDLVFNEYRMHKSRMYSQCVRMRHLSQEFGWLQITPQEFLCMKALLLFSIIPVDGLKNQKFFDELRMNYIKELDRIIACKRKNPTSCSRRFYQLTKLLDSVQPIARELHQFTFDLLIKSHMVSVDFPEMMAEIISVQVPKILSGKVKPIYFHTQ
The assay is described as follows: Inhibition of [3H]mibolerone binding to human Androgen receptor of PC3/AR Cell Lysate.
Consider `CC1(C)C(=O)N(c2ccc(C#N)c(C(F)(F)F)c2)C(=O)N1OCCOCCOCCCc1ccc(O)c(C(N)=O)c1`, for which the IC50 is 0.332 µM.
Under `CC1(C)C(=O)N(c2ccc(C#N)c(C(F)(F)F)c2)C(=O)N1OCC#CCCc1ccc(O)c(C(N)=O)c1` stands 0.049 µM; under `COc1cccc2c1C(=O)c1c(O)c3c(c(O)c1C2=O)C[C@@](O)(C(=O)CO)CC3OC1C[C@H](NCNC(=O)c2cc(COCC#CCN3C(=O)N(c4ccc(C#N)c(C(F)(F)F)c4)C(=O)C3(C)C)ccc2O)[C@H](O)[C@H](C)O1` (some centres undefined), 0.09 µM.
Under `CCCC(=O)Oc1ccc(COCC#CCN2C(=O)N(c3ccc(C#N)c(C(F)(F)F)c3)C(=O)C2(C)C)cc1C(=O)NCN[C@H]1CC(OC2C[C@](O)(C(=O)CO)Cc3c(O)c4c(c(O)c32)C(=O)c2c(OC)cccc2C4=O)O[C@@H](C)[C@H]1O` (some centres undefined) stands 0.063 µM.

Values taken from ChEMBL document CHEMBL1138810, “Studies of targeting and intracellular trafficking of an anti-androgen doxorubicin-formaldehyde conjugate in PC-3 prostate cancer cells bearing androgen receptor-GFP chimera” (J Med Chem, 2004).
